Marks after values point to notes of the source that are not given here. Where no end group is shown, it is not given here.
Assays:
Brain tumor cells = experiment: MTT proliferation inhibition, brain tumor cells; type: cell-based, human; parameters: concentration or dose not given beside the values; conditions: 48 h
In short: (§1)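 Tumour cells plated at 2×10^4 cells/mL, attached overnight, then exposed to dilutions of mPEG-HM-1 for 48 h at 37 °C, 5% CO2. MTT added 4 h, formazan dissolved in DMSO, absorbance 570/630 nm; growth inhibition = 1 − treated/untreated, three independent repeats, mean±SD.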

[1] = system: Esophageal cancer tumor cells; experiment: MTT proliferation inhibition, esophageal cancer cells; type: cell-based, human; parameters: concentration or dose not given beside the values; conditions: 48 h
In short: as §1

[2] = system: Breast cancer tumor cells; experiment: MTT proliferation inhibition, breast cancer cells; type: cell-based, human; parameters: concentration or dose not given beside the values; conditions: 48 h
In short: as §1

[3] = system: Colorectal cancer tumor cells; experiment: MTT proliferation inhibition, colorectal cancer cells; type: cell-based, human; parameters: concentration or dose not given beside the values; conditions: 48 h
In short: as §1

[4] = system: Prostate cancer tumor cells; experiment: MTT proliferation inhibition, prostate cancer cells; type: cell-based, human; parameters: concentration or dose not given beside the values; conditions: 48 h
In short: as §1

Hemangioma tumor cells = experiment: MTT proliferation inhibition, hemangioma cells; type: cell-based, human; parameters: concentration or dose not given beside the values; conditions: 48 h
In short: as §1

[5] = system: Human Umbilical Vein Endothelial Cells (HUVEC); experiment: Transwell migration of HUVEC; type: cell-based; conditions: 24 h
In short: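 HUVEC (1×10^5/mL in blank medium) seeded with test solutions into Matrigel-coated transwell inserts, lower chamber holding medium with 5% FBS and 1% ECGS, 24 h at 37 °C. Migrated cells crystal-violet stained and counted in four fields; migration inhibition calculated from test versus blank-control counts, three independent repeats.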

[6] = system: collagen induced arthritis (CIA) in DBA/1 mice; experiment: Collagen-induced mouse arthritis (CIA) model; type: in vivo; conditions: for Joint swelling / Left and right paw swelling / Clinical score: CIA DBA/1 mice; for Clinical score: maximum score 16
[7] = system: carrageenan-induced toe swelling in SD rats; experiment: Carrageenan-induced acute toe swelling in rats; type: in vivo, rat; parameters: Swelling: unit not given here
Procedure: SD rats were divided into blank model group, dexamethasone-positive group (5 mg/kg) and mPEG-HM-1 test group. The drug was administered once a day, and the model group was given the same volume of normal saline for 3 days and fed normally. At the first hour after the last administration, 0.1 mL of 1% carrageenan was injected subcutaneously into the right hind paw of the rats to induce inflammation. The volume of the foot was measured at 1 h, 3 h, 5 h, and 7 h after inflammation. The degree of swelling of the foot was calculated according to the following formula: the degree of swelling of the foot (mL)=the volume of the foot after inflammation−the volume before inflammation. Record the number of milliliters of spilled liquid (method: use the ballpoint pen to circle as the measurement mark at the protruding point of the right joint, and then put the right hind foot of each mouse into the volume measuring device, so that the hind limb is exposed outside the cylinder, and the depth of the immersion was determined by coinciding the circle with the liquid surface. After the foot enters the liquid, the liquid level rises, and the volume of the overflow liquid is the volume of the right hind foot of the rat, and the normal volume of the right hind foot of each mouse is sequentially determined).

[8] = 80 mg/kg subcutaneous from day 30 of modeling
[9] = 80 mg/kg once a day for 3 days, 1 h after carrageenan
[10] = 80 mg/kg once a day for 3 days, 3 h after carrageenan
[11] = 80 mg/kg once a day for 3 days, 5 h after carrageenan
[12] = 80 mg/kg once a day for 3 days, 7 h after carrageenan
[13] = 20 mg/kg subcutaneous from day 30 of modeling
[14] = 20 mg/kg once a day for 3 days, 1 h after carrageenan
[15] = 20 mg/kg once a day for 3 days, 3 h after carrageenan
[16] = 20 mg/kg once a day for 3 days, 5 h after carrageenan
[17] = 20 mg/kg once a day for 3 days, 7 h after carrageenan
[18] = 40 mg/kg once a day for 3 days, 1 h after carrageenan
[19] = 40 mg/kg once a day for 3 days, 3 h after carrageenan
[20] = 40 mg/kg once a day for 3 days, 5 h after carrageenan
[21] = 40 mg/kg once a day for 3 days, 7 h after carrageenan
[22] = 10 mg/kg subcutaneous from day 30 of modeling
[23] = 10 mg/kg once a day for 3 days, 1 h after carrageenan
[24] = 10 mg/kg once a day for 3 days, 3 h after carrageenan
[25] = 10 mg/kg once a day for 3 days, 5 h after carrageenan
[26] = 10 mg/kg once a day for 3 days, 7 h after carrageenan
[27] = 40 mg/kg subcutaneous from day 30 of modeling

Row | Substance | rate of growth inhibition (Brain tumor cells) | rate of growth inhibition [1] | rate of growth inhibition [2] | rate of growth inhibition [3] | rate of growth inhibition [4] | rate of growth inhibition (Hemangioma tumor cells) | cell migration number (Mean ± SD) ([5]; 90 μg/mL) | inhibition rate of HUVEC migration ([5]; 90 μg/mL) | cell migration number (Mean ± SD) ([5]; 100 μg/mL) | inhibition rate of HUVEC migration ([5]; 100 μg/mL) | Swelling [7, 9] | Swelling [7, 10] | cell migration number (Mean ± SD) ([5]; 50 μg/mL) | inhibition rate of HUVEC migration ([5]; 50 μg/mL) | cell migration number (Mean ± SD) ([5]; 60 μg/mL) | inhibition rate of HUVEC migration ([5]; 60 μg/mL) | Swelling [7, 14] | Swelling [7, 15] | Swelling [7, 16] | Swelling [7, 17] | further results
1 | mPEG-ALD40k-Arg-Gly-Ala-Asp-Arg-Ala-Gly-Gly-Gly-Gly-Arg-Gly-Asp ({mPEG‑ALD 40 kDa}-RGADRAGGGGRGD) [mPEG-ALD40k-HM-1] | 50.69 ± 14.41% | 58.11 ± 14.67% | 60.17 ± 19.24% | 70.92 ± 16.52% | 42.91 ± 11.65% | 50.67 ± 14.02% | 534.34 ± 56.62 | 48.07%* | 510.47 ± 60.56 | 50.39% | 0.26 ± 0.14 | 0.35 ± 0.13 | – | – | – | – | – | – | – | – | cell migration number (Mean ± SD) ([5]; 110 μg/mL): 471.88 ± 46.27; inhibition rate of HUVEC migration ([5]; 110 μg/mL): 54.14%; cell migration number (Mean ± SD) ([5]; 120 μg/mL): 565.31 ± 50.34; inhibition rate of HUVEC migration ([5]; 120 μg/mL): 45.06%*; Joint swelling [6, 8]: 0.77 ± 0.14 mm; Left and right paw swelling [6, 8]: 0.79 ± 0.12 mm; Clinical score [6, 8]: 8.97 ± 1.42; Swelling [7, 11]: 0.43 ± 0.14; Swelling [7, 12]: 0.33 ± 0.17; Swelling ([7]; 160 mg/kg once a day for 3 days, 1 h after carrageenan): 0.24 ± 0.13; Swelling ([7]; 160 mg/kg once a day for 3 days, 3 h after carrageenan): 0.34 ± 0.14; Swelling ([7]; 160 mg/kg once a day for 3 days, 5 h after carrageenan): 0.44 ± 0.15; Swelling ([7]; 160 mg/kg once a day for 3 days, 7 h after carrageenan): 0.34 ± 0.15
2 | mPEG-SC10k-Arg-Gly-Ala-Asp-Arg-Ala-Gly-Gly-Gly-Gly-Arg-Gly-Asp ({mPEG‑SC 10 kDa}-RGADRAGGGGRGD) [mPEG-SC10k-HM-1] | 50.21 ± 12.19% | 52.18 ± 10.25% | 50.16 ± 13.27% | 61.35 ± 16.88% | 45.39 ± 12.63% | 52.88 ± 13.66% | – | – | – | – | – | – | 612.15 ± 50.34 | 42.49%* | 527.08 ± 48.30 | 50.31% | 0.25 ± 0.11 | 0.38 ± 0.15 | 0.43 ± 0.17 | 0.31 ± 0.11 | cell migration number (Mean ± SD) ([5]; 70 μg/mL): 439.89 ± 48.08; inhibition rate of HUVEC migration ([5]; 70 μg/mL): 58.53%; cell migration number (Mean ± SD) ([5]; 80 μg/mL): 580.33 ± 58.20; inhibition rate of HUVEC migration ([5]; 80 μg/mL): 45.29%*; Joint swelling [6, 13]: 0.79 ± 0.13 mm; Left and right paw swelling [6, 13]: 0.77 ± 0.12 mm; Clinical score [6, 13]: 9.06 ± 1.24; Swelling [7, 18]: 0.22 ± 0.09; Swelling [7, 19]: 0.32 ± 0.19; Swelling [7, 20]: 0.37 ± 0.12; Swelling [7, 21]: 0.34 ± 0.13
3 | mPEG-ALD5k-Arg-Gly-Ala-Asp-Arg-Ala-Gly-Gly-Gly-Gly-Arg-Gly-Asp ({mPEG‑ALD 5 kDa}-RGADRAGGGGRGD) [mPEG-ALD5k-HM-1] | 42.15 ± 12.89% | 44.63 ± 10.86% | 49.22 ± 11.87% | 57.30 ± 15.82% | 38.47 ± 11.52% | 43.89 ± 14.14% | – | – | – | – | – | – | 415.39 ± 44.92 | 59.63% | 578.69 ± 66.03 | 43.76%* | 0.21 ± 0.11 | 0.34 ± 0.19 | 0.37 ± 0.11 | 0.35 ± 0.13 | cell migration number (Mean ± SD) ([5]; 30 μg/mL): 606.88 ± 58.90; inhibition rate of HUVEC migration ([5]; 30 μg/mL): 41.02%*; cell migration number (Mean ± SD) ([5]; 40 μg/mL): 494.52 ± 52.69; inhibition rate of HUVEC migration ([5]; 40 μg/mL): 51.94%; Joint swelling [6, 22]: 0.74 ± 0.14 mm; Left and right paw swelling [6, 22]: 0.72 ± 0.15 mm; Clinical score [6, 22]: 8.93 ± 1.27; Swelling [7, 23]: 0.22 ± 0.10; Swelling [7, 24]: 0.35 ± 0.13; Swelling [7, 25]: 0.41 ± 0.15; Swelling [7, 26]: 0.31 ± 0.12
4 | mPEG2-NHS20k-Arg-Gly-Ala-Asp-Arg-Ala-Gly-Gly-Gly-Gly-Arg-Gly-Asp ({mPEG2‑NHS 20 kDa}-RGADRAGGGGRGD) [mPEG2-NHS20k-HM-1] | 45.51 ± 10.15% | 50.79 ± 14.37% | 52.68 ± 17.25% | 58.16 ± 20.36% | 47.75 ± 10.14% | 55.38 ± 16.23% | 434.68 ± 42.64 | 58.07% | 562.61 ± 62.34 | 45.73%* | 0.25 ± 0.11 | 0.32 ± 0.13 | – | – | – | – | – | – | – | – | cell migration number (Mean ± SD) ([5]; 70 μg/mL): 618.48 ± 47.53; inhibition rate of HUVEC migration ([5]; 70 μg/mL): 40.34%*; cell migration number (Mean ± SD) ([5]; 80 μg/mL): 512.85 ± 40.86; inhibition rate of HUVEC migration ([5]; 80 μg/mL): 50.53%; Joint swelling [6, 27]: 0.72 ± 0.16 mm; Left and right paw swelling [6, 27]: 0.75 ± 0.12 mm; Clinical score [6, 27]: 8.67 ± 1.35; limbs score (in words) ([6]; CIA mice, subcutaneous, once every three days, vs model control group): significantly lower than that of the model control group; Swelling [7, 18]: 0.26 ± 0.15; Swelling [7, 19]: 0.34 ± 0.14; Swelling [7, 20]: 0.43 ± 0.17; Swelling [7, 21]: 0.36 ± 0.12; Swelling [7, 11]: 0.41 ± 0.11; Swelling [7, 12]: 0.34 ± 0.14
5 | mPEG2-NHS5k-Arg-Gly-Ala-Asp-Arg-Ala-Gly-Gly-Gly-Gly-Arg-Gly-Asp ({mPEG2‑NHS 5 kDa}-RGADRAGGGGRGD) [mPEG2-NHS5k-HM-1] | 40.35 ± 10.29% | 41.35 ± 11.32% | 45.69 ± 12.10% | 52.37 ± 12.24% | 39.33 ± 12.01% | 42.78 ± 12.50% | – | – | – | – | – | – | 475.01 ± 50.90 | 54.18% | 590.29 ± 50.72 | 43.06%* | 0.22 ± 0.11 | 0.32 ± 0.21 | 0.36 ± 0.12 | 0.32 ± 0.16 | cell migration number (Mean ± SD) ([5]; 30 μg/mL): 611.33 ± 58.92; inhibition rate of HUVEC migration ([5]; 30 μg/mL): 41.03%*; cell migration number (Mean ± SD) ([5]; 40 μg/mL): 516.16 ± 48.34; inhibition rate of HUVEC migration ([5]; 40 μg/mL): 50.21%; Joint swelling [6, 22]: 0.78 ± 0.12 mm; Left and right paw swelling [6, 22]: 0.76 ± 0.11 mm; Clinical score [6, 22]: 9.01 ± 1.28; Swelling [7, 23]: 0.25 ± 0.13; Swelling [7, 24]: 0.36 ± 0.12; Swelling [7, 25]: 0.43 ± 0.17; Swelling [7, 26]: 0.31 ± 0.15

— patent publication US10869931B2, “Polyethylene glycol-modified angiogenesis inhibitor HM-1 and application thereof” (NANJING ANJI BIOLOGICAL TECHNOLOGY CO.,LTD, priority 2016, dated 2020)
